Laboratory results taken from patent US20250041373A1, “EXTRACTION METHOD OF HIBISCUS SABDARIFFA L. TAITUNG NO. 6, HIBISCUS SABDARIFFA L. TAITUNG NO. 6 EXTRACT USING THE SAME, AND USES THEREOF” (WEL-BLOOM BIO-TECH CORPORATION, priority 2023, published 2025).

System: B16-F10 melanoma cells
Assay: melanin content analysis in α-MSH-treated B16-F10 melanoma cells
Type: cell-based
Conditions: co-treatment with 500 nM α-MSH; positive control, concentration not given; FIG. 6
Description: Further, in the present embodiment, an ability of the Hibiscus sabdariffa L. ‘TAITUNG NO. 6’ extract to inhibit melanin production is evaluated by a melanin content analysis, and a method thereof is as follows. B16-F10 melanoma cells (1×10^5) are seeded in a 24-well culture plate and treated with 500 nM α-melanocyte stimulating hormone (α-MSH) at 37° C. for 24 hours. Then, these cells are treated with various concentrations of the Hibiscus sabdariffa L. ‘TAITUNG NO. 6’ extract for 48 hours, and are treated with trypsin after being rinsed with PBS. A cell pellet is collected by centrifugation at 10,000 g for 20 minutes at a room temperature, and is then lysed with 1N NaOH for 60 minutes. The melanin content is analyzed by comparing an absorbance value of a test sample at 405 nm with a standard curve obtained by using a synthetic melanin.

## O=c1cc(CO)occ1O [kojic acid]
  melanin content of the melanoma cells: significantly decreased
